Source: patent US10501511B2, “Low molecular polypeptide for preventing and treating inflammation and use thereof” (SHANGHAI FIRST PEOPLE'S HOSPITAL, priority 2013, dated 2019)
Each block holds one compound with its values, some of them ahead of it. Where a SMILES comes first, the peptide text is derived from it.

How the values were obtained:
[1] = tested on: Rat Endotoxin-induced Uveitis (EIU) model; experiment: Clinical manifestation score in rat endotoxin-induced uveitis (EIU) model; format: in vivo, Wistar rats; conditions: 10 μl into vitreous chamber, 24 hours, score 0-4
Method: (§1) 1.1 Experiment animals and materials: healthy male Wistar rats, 140-180 g, 8-10 weeks old, were purchased from Animal Center of Chinese Academy of Medical Sciences; Lipopolysaccharides (LPS), derived from Escherichia coli, was purchased from SIGMA-Aldrich Corporation (U.S.A).
(§2) 1.2 Model establishment and Intervention test: Wistar rats were randomly divided into six groups (9-15 rats for each group) which were LPS group, LPS+1 μg/μl H-RN intervention group, LPS+5 μg/μl H-RN group, LPS+10 μg/μl H-RN group, LPS+10 μg/μl DXM and normal control group (PBS) respectively. 200 μg LPS (2 mg/ml, 100 μl, dissolved in sterile saline) was subcutaneously injected into right foot pad of rats, thereby establishing EIU model. The normal control group was subcutaneously injected with 100 μl sterile saline into the right foot pad of rats. In LPS group, LPS+H-RN (1, 5, 10 μg/μl) intervention group and LPS+10 μg/μl DXM group, each rat was subcutaneously injected with 200 μg LPS into the right foot pad, meanwhile, PBS 10 μl, H-RN PBS solution (1, 5 and 10 μg/μl) 10 μl and DXM PBS solution (10 μg/μl) 10 μl were injected into vitreous chamber respectively.
1.3 Qualitative observation for Clinical manifestations of EIU rats: 24 hours after drug and LPS intervention, rats were observed by biological microscope. The clinical manifestations of rats were evaluated and scored by an independent observer according to the method of Behar-Cohen et al. The severity of EIU was represented by 0-4 scores: 0: no inflammation; 1: mild dilation in conjunctiva and iris vessel; 2: moderate dilation in conjunctiva and iris vessel with anterior chamber flare; 3: severe iris hyperemia with severe anterior chamber flare; 4: anterior chamber cellulose-like exudation, posterior synechia, miosis and hypopyon in addition to 3 points.
(§3) The experiment data was shown as x±s. A one-way ANOVA was used to compare the change of inflammatory cell infiltration of rats in each group. P<0.05 represents statistical significance.

[2] = tested on: Rat Endotoxin-induced Uveitis (EIU) model; experiment: Count of inflammatory cell infiltration in aqueous humor of EIU rats; format: in vivo, Wistar rats; conditions: 24 hours, LPS group 164.20±142.7
Method: as §1, §2
1.4 Quantitative count for inflammatory cell infiltration in rat aqueous humor: 24 hours after LPS and drug intervention, rats were sacrificed in excess of anesthesia. Under an operating microscope, aqueous humor (30-40 μl/binoculus) was collected by anterior chamber paracentesis with a 30-gauge microsyringe at 1 mm from rat corneal limbus. Aqueous humor samples were diluted with an equal amount of trypan blue dye liquid. Cells in aqueous humor were counted using a hemocytometer under light microscopy by two independent technicians for each region (equivalent with 0.1 μl). The average of the four regions was the number of cells contained in 1 μl aqueous humor.
as §3

[3] = tested on: TNF-α in LPS-induced RAW264.7 cells; experiment: TNF-α concentration (ELISA) in supernatant of LPS-induced RAW264.7 cells; format: cell-based, murine; conditions: for concentration of TNF-α in cell supernatant: LPS group 1333.00±476.59, control 561.00±25.65; for TNF-α: Samples 10 μM, Control (LPS) 1425.60
Method: (§4) 1.1 Experimental cell strain and Materials: murine peritoneal macrophage cell strain RAW264.7 were purchased from the Cell Bank of Shanghai Institutes for Biological Sciences, CAS; DMEM high glucose medium was purchased from GIBCO; mouse tumor necrosis factor-α (TNF-α) and interleukin-6 (IL-6) enzyme-linked immunosorbent assay (ELISA) kits were purchased from R & D company, US.
(§5) 1.2 Model establishment and Intervention test: RAW264.7 cells were cultured in high glucose DMEM medium containing 10% fetal bovine serum (FBS), and 100 U/ml double antibiotics of penicillin and streptomycin, and placed in 37° C., 5% CO2 incubator for amplification. Cells at Logarithmic growth phase were seeded in 24-well plates at 2.5×10^5/ml. When adhered cells grew well and were cultured to 80-90% of confluence, the medium was replaced by a DMEM medium without 10% FBS for serum-starved culture for 24 hours. RAW264.7 cells were randomly divided into control group, LPS group, LPS+H-RN group with sextuplicate wells for each group. LPS group and LPS+H-RN group were added with 500 μl of different concentrations of H-RN (1, 10, 100 μM) and LPS (100 ng/ml) and the control group was added with an equal volume of DMEM medium, each group was placed in 37° C., 5% CO2 incubator and routinely cultured. Cell supernatants were collected after 24 hours.
(§6) The experiment data was shown as x±s. SPSS 11.0 statistical package was used for statistic analysis and one-way ANOVA was used to compare TNF-α and IL-6 level in supernatant between the groups, and P<0.05 represents statistical significance.

[4] = tested on: IL-6 in LPS-induced RAW264.7 cells; experiment: IL-6 concentration (ELISA) in supernatant of LPS-induced RAW264.7 cells; format: cell-based, murine; conditions: for concentration of IL-6 in cell supernatant: LPS group 2650.00±106.07, control 213.00±15.56; for IL-6: Samples 10 μM, Control (LPS) 2713.95
Method: as §4, §5, §6

[5] = Cytotoxicity assay (MTS colorimetric method), relative growth rate; format: cell-based, murine; conditions: mouse, RAW264.7 macrophage cells, 24 hours, MTS, blank 100.05±3.95%, read-out: relative growth rate (RGR) of cells
Method: (§7) 1.1 Experimental cell strain and Materials: murine peritoneal macrophage cell line RAW264.7 were purchased from the Cell Bank of Shanghai Institutes for Biological Sciences, CAS; DMEM high glucose medium were purchased from GIBCO; MTS were purchased from Promega, prepared into 300 mmol/L in PBS (pH 6.0) and stored at −20° C. in darkness.
(§8) 1.2 Model establishment and Intervention test: RAW264.7 cells were cultured in high glucose DMEM medium containing 10% fetal bovine serum (FBS), and 100 U/ml double antibiotics of penicillin and streptomycin, and placed in 37° C., 5% CO2 incubator for amplification. Cells at logarithmic growth phase were seeded in 96-well plates at 1×10^5/ml. When adhered cells grew well and were cultured to 80-90% of confluence, the medium was replaced by a DMEM medium without 10% FBS for serum-starved culture for 24 hours.
(§9) 1.3 Cytotoxicity assay (MTS colorimetric method): After the cells were cultured for 24 hours in serum starvation, different concentrations of H-RN (0.1, 1, 10 μM, 100 μM, 1 mM, 100 μl) were added into each well with sextuplicate wells for each concentration. The blank control group was added with an equal volume of DMEM medium. The plates were placed in 37° C., 5% CO2 incubator and cultured for 24 hours, added with 20 μl of MTS solution to each well and cultured for another 4 hours. The absorbance of each well was measured by an enzyme-linked immunosorbent detector in 490 nm, and the relative growth rate (RGR) of cells was calculated. Formula: RGR=A value of experimental group/A value of control group×100%.
(§10) 1.5. Statistic analysis: The experiment data was shown as x±s. SPSS 11.0 statistical package was used for statistic analysis and one-way ANOVA was used to compare RGR of cells between the groups, and P<0.05 represents statistical significance.

RAW264.7 cells = experiment: as above; format: cell-based, murine; conditions: concentration range of 0.1 μm-1 mM
Method: as §7, §8, §9, §10

[6] = Water solubility of synthesized polypeptide powder; format: physicochemical; conditions: white powder
[7] = LPS + 10 μg/μl peptide, LPS group 3.56±0.51
[8] = LPS + 10 μg/μl peptide intravitreal
[9] = 1 μM peptide + LPS 100 ng/ml, 24 hours, P>0.05
[10] = 10 μM peptide + LPS 100 ng/ml, 24 hours
[11] = 100 μM peptide + LPS 100 ng/ml, 24 hours

water solubility [6]: good water solubility
Compound: N=C(N)NCCC[C@H](NC(=O)[C@@H]1CCCN1C(=O)[C@H](CC(N)=O)NC(=O)[C@@H](N)CCCNC(=N)N)C(=O)NCC(=O)N[C@@H](CCC(=O)O)C(=O)N[C@@H](CCC(=O)O)C(=O)NCC(=O)NCC(=O)N1CCC[C@H]1C(=O)N[C@@H](Cc1c[nH]c2ccccc12)C(=O)O [H-RN, RNPRGEEGGPW] (H-RNPRGEEGGPW-OH; N-terminus assumed)
EIU clinical score ([1]; LPS + 1 μg/μl H-RN, LPS group 3.56±0.51, normal control 0.50±0.54): 2.42±0.53
EIU clinical score ([1]; LPS + 5 μg/μl peptide, LPS group 3.56±0.51): 2.12±0.64
EIU clinical score [1, 7]: 1.92±0.27
count of inflammatory cells in aqueous humor ([2]; LPS + 1 μg/μl peptide intravitreal): 49.14±40.84 ×10^5 cells/ml
count of inflammatory cells in aqueous humor ([2]; LPS + 5 μg/μl peptide intravitreal): 40.40±31.34 ×10^5 cells/ml
count of inflammatory cells in aqueous humor [2, 8]: 37.35±21.44 ×10^5 cells/ml
TNF-α in cell supernatant compared with LPS group [3, 9]: no significant difference
concentration of TNF-α in cell supernatant [3, 10]: 737.00 ± 155.56 pg/mL
concentration of TNF-α in cell supernatant [3, 11]: 718.00 ± 79.19 pg/mL
IL-6 in cell supernatant compared with LPS group [4, 9]: no significant difference
concentration of IL-6 in cell supernatant [4, 10]: 1385.00 ± 101.54 pg/mL
concentration of IL-6 in cell supernatant [4, 11]: 1355.00 ± 134.35 pg/mL
viability at 24 h, 0.1 µM ([5]; 0.1 μM): 96.9 ± 3.64%
viability at 24 h, 1 µM ([5]; 1 μM): 100 ± 2.67%
viability at 24 h, 10 µM ([5]; 10 μM): 98.3 ± 3.91%
viability at 24 h, 100 µM ([5]; 100 μM): 101 ± 4%
viability at 24 h, 1000 µM ([5]; 1 mM): 95.8 ± 4.92%
toxic effects on cells (RAW264.7 cells): no significant toxic effects

Compound: GPERWRGPNGE [H-GP, reference compound]
EIU clinical score [1, 7]: 3.32±0.61
count of inflammatory cells in aqueous humor [2, 8]: 134.66±98.23 ×10^5 cells/ml
TNF-α in cell supernatant compared with LPS group ([3]; 100 μM peptide, p>0.05): no significant difference
IL-6 in cell supernatant compared with LPS group ([4]; 100 μM peptide, p>0.05): no significant difference

Compound: KQPRGEEGGPW [Derived polypeptide 2, polypeptide derived from H-RN]
TNF-α [3]: 701.63 pg/mL
IL-6 [4]: 1356.46 pg/mL

Compound: NPRGEEGGP [Derived polypeptide 5, polypeptide derived from H-RN]
TNF-α [3]: 745.70 pg/mL
IL-6 [4]: 1395.34 pg/mL

Compound: QNPRGDEPGPW [Derived polypeptide 4, polypeptide derived from H-RN]
TNF-α [3]: 765.92 pg/mL
IL-6 [4]: 1411.87 pg/mL

Compound: RNPKGEEGGPW [Derived polypeptide 1, polypeptide derived from H-RN]
TNF-α [3]: 724.98 pg/mL
IL-6 [4]: 1365.29 pg/mL

Compound: RNPRGEEGGPWCF [Derived polypeptide 6, polypeptide derived from H-RN]
TNF-α [3]: 696.77 pg/mL
IL-6 [4]: 1369.41 pg/mL

Compound: RNPRPEEGGAY [Derived polypeptide 3, polypeptide derived from H-RN]
TNF-α [3]: 792.31 pg/mL
IL-6 [4]: 1402.54 pg/mL
